Article PMC10409773, “Structure, catalysis, chitin transport, and selective inhibition of chitin synthase” (Nature Communications, 2023)

What was measured:
Chs1 (chitin synthase 1) = molecular target: T1, Chs1 (chitin synthase 1) (Saccharomyces cerevisiae, UniProt P08004); test: cryo-EM structure at […] Å with UDP-GlcNAc (also with UDP, 8K3U); format: binding
T1 construct: Chs1 (1131 residues) with C-terminal triple-FLAG; N-terminal ~374 residues largely disordered; homodimer
T1 sequence (P08004 1-1131): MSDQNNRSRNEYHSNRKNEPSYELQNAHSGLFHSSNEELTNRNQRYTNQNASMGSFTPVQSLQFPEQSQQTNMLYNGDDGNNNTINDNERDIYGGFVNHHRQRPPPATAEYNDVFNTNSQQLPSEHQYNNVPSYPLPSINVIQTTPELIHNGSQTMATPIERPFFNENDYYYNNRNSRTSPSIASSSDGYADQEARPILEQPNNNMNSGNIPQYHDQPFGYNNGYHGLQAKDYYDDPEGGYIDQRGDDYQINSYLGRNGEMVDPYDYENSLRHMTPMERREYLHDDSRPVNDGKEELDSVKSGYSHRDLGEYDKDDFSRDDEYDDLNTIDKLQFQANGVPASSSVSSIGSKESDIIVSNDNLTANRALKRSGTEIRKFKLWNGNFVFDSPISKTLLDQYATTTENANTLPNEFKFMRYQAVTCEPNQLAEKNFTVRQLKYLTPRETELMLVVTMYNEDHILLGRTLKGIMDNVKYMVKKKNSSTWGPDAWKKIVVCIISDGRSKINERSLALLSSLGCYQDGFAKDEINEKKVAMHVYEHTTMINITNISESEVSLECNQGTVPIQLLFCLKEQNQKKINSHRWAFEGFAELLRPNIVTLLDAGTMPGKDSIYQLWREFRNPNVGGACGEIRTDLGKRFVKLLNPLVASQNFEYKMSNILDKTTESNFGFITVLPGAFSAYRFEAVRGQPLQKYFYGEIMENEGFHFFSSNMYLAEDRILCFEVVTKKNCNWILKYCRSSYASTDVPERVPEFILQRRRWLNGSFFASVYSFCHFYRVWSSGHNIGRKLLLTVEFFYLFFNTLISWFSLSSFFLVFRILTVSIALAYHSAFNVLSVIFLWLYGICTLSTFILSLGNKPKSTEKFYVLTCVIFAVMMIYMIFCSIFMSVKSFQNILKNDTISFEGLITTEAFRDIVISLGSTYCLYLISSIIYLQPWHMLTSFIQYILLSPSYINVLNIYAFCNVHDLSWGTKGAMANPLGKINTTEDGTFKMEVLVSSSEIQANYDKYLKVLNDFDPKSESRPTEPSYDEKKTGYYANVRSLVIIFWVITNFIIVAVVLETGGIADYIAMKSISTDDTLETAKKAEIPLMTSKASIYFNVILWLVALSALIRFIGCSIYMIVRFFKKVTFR

[1] = molecular target: the molecule itself; test: cryo-EM structure; single-particle cryo-EM of purified Chs1 (~3 mg/mL) in LMNG/GDN/CHS, alone or with 5 mM UDP-GlcNAc, GlcNAc, UDP, Nikkomycin Z or Polyoxin B on ice; maps refined with C2 symmetry

Row | Molecule | cryo-EM structure at 2.9 Å with UDP-GlcNAc (also with UDP, 8K3U) (Chs1 (chitin synthase 1)) | stoichiometry N [1]
1 | CC(=O)N[C@H]1C(O)O[C@H](CO)[C@@H](O)[C@@H]1O (some centres unmarked) [GlcNAc] | The GlcNAc ring is vertically inserted into a slit between the indole ring of W760 and the pyrrolidine ring | 
2 | Saccharomyces cerevisiae chitin synthase 1 (Chs1), wild type, C-terminal triple FLAG (enzyme, S. cerevisiae, Chitin synthase 1 (Chs1), S. cerevisiae, UniProt P08004; the first 374 residues (except 245-271) are not seen in the maps; the purified sample was partly digested in the N-terminal region by endogenous protease (a smaller species lacks about the N-terminal 150 residues); also called ScChs1; scChs1) MSDQNNRSRNEYHSNRKNEPSYELQNAHSGLFHSSNEELTNRNQRYTNQNASMGSFTPVQSLQFPEQSQQTNMLYNGDDGNNNTINDNERDIYGGFVNHHRQRPPPATAEYNDVFNTNSQQLPSEHQYNNVPSYPLPSINVIQTTPELIHNGSQTMATPIERPFFNENDYYYNNRNSRTSPSIASSSDGYADQEARPILEQPNNNMNSGNIPQYHDQPFGYNNGYHGLQAKDYYDDPEGGYIDQRGDDYQINSYLGRNGEMVDPYDYENSLRHMTPMERREYLHDDSRPVNDGKEELDSVKSGYSHRDLGEYDKDDFSRDDEYDDLNTIDKLQFQANGVPASSSVSSIGSKESDIIVSNDNLTANRALKRSGTEIRKFKLWNGNFVFDSPISKTLLDQYATTTENANTLPNEFKFMRYQAVTCEPNQLAEKNFTVRQLKYLTPRETELMLVVTMYNEDHILLGRTLKGIMDNVKYMVKKKNSSTWGPDAWKKIVVCIISDGRSKINERSLALLSSLGCYQDGFAKDEINEKKVAMHVYEHTTMINITNISESEVSLECNQGTVPIQLLFCLKEQNQKKINSHRWAFEGFAELLRPNIVTLLDAGTMPGKDSIYQLWREFRNPNVGGACGEIRTDLGKRFVKLLNPLVASQNFEYKMSNILDKTTESNFGFITVLPGAFSAYRFEAVRGQPLQKYFYGEIMENEGFHFFSSNMYLAEDRILCFEVVTKKNCNWILKYCRSSYASTDVPERVPEFILQRRRWLNGSFFASVYSFCHFYRVWSSGHNIGRKLLLTVEFFYLFFNTLISWFSLSSFFLVFRILTVSIALAYHSAFNVLSVIFLWLYGICTLSTFILSLGNKPKSTEKFYVLTCVIFAVMMIYMIFCSIFMSVKSFQNILKNDTISFEGLITTEAFRDIVISLGSTYCLYLISSIIYLQPWHMLTSFIQYILLSPSYINVLNIYAFCNVHDLSWGTKGAMANPLGKINTTEDGTFKMEVLVSSSEIQANYDKYLKVLNDFDPKSESRPTEPSYDEKKTGYYANVRSLVIIFWVITNFIIVAVVLETGGIADYIAMKSISTDDTLETAKKAEIPLMTSKASIYFNVILWLVALSALIRFIGCSIYMIVRFFKKVTFR |  | 2
